Assays:
Endomyces geotrichum = experiment: MIC against fungi, strain M; assay type: cell-based; details: malt extract agar
Protocol: (§1) Determination of the minimum inhibitory concentration (MIC) against fungi
(§2) The investigation is carried out in malt extract agar (Merck) by the known agar incorporation test using the fungi
(§3) For inhibition, the various compounds are in each case added in amounts such that concentrations of […] results in the agar. The concentrations (mg/liter) required for inhibition of the growth of the fungi (starting from traces of fungi dripped on) are illustrated in Table D.

[1] = system: Cladosporium cladosporioides; experiment: MIC against fungi, strain K; assay type: cell-based; details: malt extract agar
Protocol: as §1, §2
K Cladosporium cladosporioides
as §3

Aspergillus niger = experiment: MIC against fungi, strain G; assay type: cell-based; details: malt extract agar
Protocol: as §1, §2

Penicillium funiculosum = experiment: MIC against fungi, strain I; assay type: cell-based; details: malt extract agar
Protocol: as §1, §2
I Penicillium funiculosum
as §3

Alternaria alternata = experiment: MIC against fungi, strain J; assay type: cell-based; details: malt extract agar
Protocol: as §1, §2, §3

Chaetomium globosum = experiment: MIC against fungi, strain O; assay type: cell-based; details: malt extract agar
Protocol: as §1, §2, §3

Candida albicans = experiment: MIC against fungi, strain L; assay type: cell-based; details: malt extract agar
Protocol: as §1, §2, §3

Aspergillus phoenicia = experiment: MIC against fungi, strain H; assay type: cell-based; details: malt extract agar
Protocol: as §1, §2, §3

Chlorella vulgaris = experiment: Action against Chlorella vulgaris; assay type: cell-based; design: key to Growth in the medium: 1: no growth in the medium, 3 ppm have a growthinhibiting action; key to Growth on the agar: 2: no growth on the agar, 3 ppm have destroyed the algae within 6 hours; details: 3 mg/liter; for Growth on the agar: 6 hours exposure (algae-destruction action); for Growth in the medium: 14 days (inhibition of growth)
Protocol: Determination of the action against algae
A Chlorella vulgaris culture grown for 14 days in algae nutrient medium is diluted 1:200 in algae nutrient medium. Each of the compounds listed in Table E is then added such that a concentration of 3 mg/liter results. After incubation for 6 hours, 10 μl are in each case withdrawn and dripped onto algae agar in order to determine the destructive action.

Aureobasidium pullulans = experiment: MIC against fungi, strain N; assay type: cell-based; details: malt extract agar
Protocol: as §1, §2
N Aureobasidium pullulans
as §3

Enterobacter aerogenes = experiment: MIC against bacteria, strain C; assay type: cell-based; details: 24 h, 30° C., tested at 100 or 300 mg/liter
Protocol: (§4) Determination of the minimum inhibitory concentration (MIC) against bacteria
(§5) ONCs (cultures incubated overnight) of the bacteria strains A-F grown in Caso-Peptone broth (Merck) are each diluted […] in saline. An amount of the suspension is introduced into Caso-Peptone broth such that the bacteria are again diluted 1:1,000. The cultures are treated with 100 or 300 mg/liter of the phosphonium stannates shown in Table B. After incubation at 30° C. in a shaking water bath for 24 hours, the cultures are evaluated on the basis of cloudiness. The MIC is the concentration at which the broth is not clouded by bacterial growth.

Bacillus subtilis = experiment: MIC against bacteria, strain F; assay type: cell-based; details: 24 h, 30° C., tested at 100 or 300 mg/liter
Protocol: as §4, §5

Serratia marcenscens = experiment: MIC against bacteria, strain D; assay type: cell-based; details: 24 h, 30° C., tested at 100 or 300 mg/liter
Protocol: as §4, §5

Pseudomonas aeruginosa = experiment: MIC against bacteria, strain B; assay type: cell-based; details: 24 h, 30° C., tested at 100 or 300 mg/liter
Protocol: as §4, §5

Proteus vulgaris = experiment: MIC against bacteria, strain A; assay type: cell-based; details: 24 h, 30° C., tested at 100 or 300 mg/liter
Protocol: as §4, §5

[2] = system: Alkaligenes denitrificans; experiment: MIC against bacteria, strain E; assay type: cell-based; details: 24 h, 30° C., tested at 100 or 300 mg/liter
Protocol: as §4, §5

Artemia salina = experiment: Action against Artemia salina; assay type: in vivo; design: key: 0: nauplii not affected; 1: slight change; 1-2: nauplii affected; 2: nauplii severely affected; 2-3: almost all nauplii dead; 3: all nauplii dead
From the text: Determination of the action against Artemia salina
The commercially available eggs are caused to hatch under powerful aeration. […]

Aureobasidium pullans = experiment: Growth on wood; details: 28° C., 4 weeks
Protocol: Small wooden blocks of spruce, 7×10×10 mm in size, are dried under a vacuum for 30 minutes. The small blocks are then subjected to impregnation under a vacuum, by being left in 20 ml of distilled water and the biocide under vacuum for 30 minutes, and are then exposed to pressure treatment (2 atmospheres gauge by compressed air) in water for 18 hours. The pieces of wood thus treated are either immediately dried or first subjected to bleaching in running water and then dried.
The small dried pieces of wood are placed on potato glucose agar and the wood and surrounding agar are innoculated with 0.1 ml of a spore suspension of Aureobasidium pullans. After incubation at 28° C. for 4 weeks, the growth is evaluated according to the following plan.
4=No growth on the wood, inhibitory zone up to 2 mm
5=No growth on the wood, inhibitory zone greater than 2 mm

CCCC[P+](CCCC)(CCCC)CCCC.CCC[CH2][Sn-]([Cl])([Cl])([CH2]CCC)[CH2]CCC [Example 45]
MIC against fungi (Endomyces geotrichum): 10 µg/mL | MIC against fungi [1]: 10 µg/mL | MIC against fungi (Aspergillus niger): 10 µg/mL | MIC against fungi (Penicillium funiculosum): 10 µg/mL | MIC against fungi (Alternaria alternata): 10 µg/mL | MIC against fungi (Chaetomium globosum): 10 µg/mL | MIC against fungi (Candida albicans): 10 µg/mL | MIC against fungi (Aspergillus phoenicia): 10 µg/mL | Growth on the agar (Chlorella vulgaris): 2 | Growth in the medium (Chlorella vulgaris): 1 | MIC against fungi (Aureobasidium pullulans): 10 µg/mL

CCCCCCCCCCCCCC[P+](CCCC)(CCCC)CCCC.CCC[CH2][Sn-]([Cl])([Cl])([Cl])[Cl] [Example 24]
MIC (Enterobacter aerogenes): 100 µg/mL | MIC against fungi (Endomyces geotrichum): 50 µg/mL | MIC against fungi [1]: 10 µg/mL | MIC against fungi (Aspergillus niger): > 100 µg/mL | MIC (Bacillus subtilis): 100 µg/mL | MIC against fungi (Penicillium funiculosum): 10 µg/mL | MIC (Serratia marcenscens): 100 µg/mL | MIC against fungi (Alternaria alternata): > 100 µg/mL | MIC against fungi (Chaetomium globosum): 50 µg/mL | MIC against fungi (Candida albicans): 50 µg/mL | MIC (Pseudomonas aeruginosa): 100 µg/mL | MIC against fungi (Aspergillus phoenicia): > 100 µg/mL | Growth on the agar (Chlorella vulgaris): 2 | Growth in the medium (Chlorella vulgaris): 1 | MIC against fungi (Aureobasidium pullulans): 10 µg/mL | MIC (Proteus vulgaris): 100 µg/mL | MIC [2]: 100 µg/mL

CCCCCCCCCCCCCC[P+](CCCC)(CCCC)CCCC.CCCCCCCCCCCCCC[P+](CCCC)(CCCC)CCCC.[CH3][Sn-2]([CH3])([Cl])([Cl])([Cl])[Cl] [Example 21]
MIC (Enterobacter aerogenes): 100 µg/mL | Action against Artemia salina (Artemia salina; 0.25 mg/liter, 6 hours): 1-2 | Action against Artemia salina (Artemia salina; 0.25 mg/liter, 24 hours): 3 | Action against Artemia salina (Artemia salina; 0.25 mg/liter, 48 hours): 3 | Action against Artemia salina (Artemia salina; 0.5 mg/liter, 6 hours): 1-2 | Action against Artemia salina (Artemia salina; 0.5 mg/liter, 24 hours): 2 | Action against Artemia salina (Artemia salina; 0.5 mg/liter, 48 hours): 3 | Action against Artemia salina (Artemia salina; 1 mg/liter, 6 hours): 1-2 | Action against Artemia salina (Artemia salina; 1 mg/liter, 24 hours): 3 | Action against Artemia salina (Artemia salina; 1 mg/liter, 48 hours): 3 | Action against Artemia salina (Artemia salina; 2.5 mg/liter, 6 hours): 1-2 | Action against Artemia salina (Artemia salina; 2.5 mg/liter, 24 hours): 3 | Action against Artemia salina (Artemia salina; 2.5 mg/liter, 48 hours): 3 | MIC against fungi (Endomyces geotrichum): 10 µg/mL | MIC against fungi [1]: 10 µg/mL | MIC against fungi (Aspergillus niger): 50 µg/mL | MIC (Bacillus subtilis): 100 µg/mL | MIC against fungi (Penicillium funiculosum): 10 µg/mL | MIC (Serratia marcenscens): 100 µg/mL | MIC against fungi (Alternaria alternata): 50 µg/mL | MIC against fungi (Chaetomium globosum): 10 µg/mL | MIC against fungi (Candida albicans): 10 µg/mL | MIC (Pseudomonas aeruginosa): 100 µg/mL | MIC against fungi (Aspergillus phoenicia): 50 µg/mL | Growth on the agar (Chlorella vulgaris): 2 | Growth in the medium (Chlorella vulgaris): 1 | MIC against fungi (Aureobasidium pullulans): 10 µg/mL | MIC (Proteus vulgaris): 100 µg/mL | MIC [2]: 100 µg/mL

CCCCCCCCCCCCCC[P+](CCCC)(CCCC)CCCC.CCCCCCCCCCCCCC[P+](CCCC)(CCCC)CCCC.CCC[CH2][Sn-2]([Cl])([Cl])([Cl])([Cl])[Cl] [Example 25]
MIC (Enterobacter aerogenes): 100 µg/mL | MIC against fungi (Endomyces geotrichum): 10 µg/mL | MIC against fungi [1]: 10 µg/mL | MIC against fungi (Aspergillus niger): 100 µg/mL | MIC (Bacillus subtilis): 100 µg/mL | MIC against fungi (Penicillium funiculosum): 10 µg/mL | MIC (Serratia marcenscens): 100 µg/mL | MIC against fungi (Alternaria alternata): 100 µg/mL | MIC against fungi (Chaetomium globosum): 50 µg/mL | MIC against fungi (Candida albicans): 50 µg/mL | MIC (Pseudomonas aeruginosa): 100 µg/mL | MIC against fungi (Aspergillus phoenicia): > 100 µg/mL | Growth on the agar (Chlorella vulgaris): 2 | Growth in the medium (Chlorella vulgaris): 1 | MIC against fungi (Aureobasidium pullulans): 10 µg/mL | MIC (Proteus vulgaris): 100 µg/mL | MIC [2]: 100 µg/mL

CCCCCCCCCCCCCC[P+](CCCC)(CCCC)CCCC.CCCCCCCCCCCCCC[P+](CCCC)(CCCC)CCCC.[CH3][Sn-2]([Cl])([Cl])([Cl])([Cl])[Cl] [Example 23]
MIC (Enterobacter aerogenes): 100 µg/mL | Action against Artemia salina (Artemia salina; 0.25 mg/liter, 6 hours): 0 | Action against Artemia salina (Artemia salina; 0.25 mg/liter, 24 hours): 1-2 | Action against Artemia salina (Artemia salina; 0.25 mg/liter, 48 hours): 2-3 | Action against Artemia salina (Artemia salina; 0.5 mg/liter, 6 hours): 1-2 | Action against Artemia salina (Artemia salina; 0.5 mg/liter, 24 hours): 2-3 | Action against Artemia salina (Artemia salina; 0.5 mg/liter, 48 hours): 3 | Action against Artemia salina (Artemia salina; 1 mg/liter, 6 hours): 1-2 | Action against Artemia salina (Artemia salina; 1 mg/liter, 24 hours): 3 | Action against Artemia salina (Artemia salina; 1 mg/liter, 48 hours): 3 | Action against Artemia salina (Artemia salina; 2.5 mg/liter, 6 hours): 1-2 | Action against Artemia salina (Artemia salina; 2.5 mg/liter, 24 hours): 3 | Action against Artemia salina (Artemia salina; 2.5 mg/liter, 48 hours): 3 | MIC against fungi (Endomyces geotrichum): 10 µg/mL | MIC against fungi [1]: 10 µg/mL | MIC against fungi (Aspergillus niger): 50 µg/mL | MIC (Bacillus subtilis): 100 µg/mL | MIC against fungi (Penicillium funiculosum): 10 µg/mL | MIC (Serratia marcenscens): 100 µg/mL | MIC against fungi (Alternaria alternata): 50 µg/mL | MIC against fungi (Chaetomium globosum): 10 µg/mL | MIC against fungi (Candida albicans): 10 µg/mL | MIC (Pseudomonas aeruginosa): 100 µg/mL | MIC against fungi (Aspergillus phoenicia): 50 µg/mL | Growth on the agar (Chlorella vulgaris): 2 | Growth in the medium (Chlorella vulgaris): 1 | MIC against fungi (Aureobasidium pullulans): 10 µg/mL | MIC (Proteus vulgaris): 100 µg/mL | MIC [2]: 100 µg/mL

OC[P+](CO)(CO)CO.[Cl][Sn-]([Cl])([CH]1CCCCC1)([CH]1CCCCC1)[CH]1CCCCC1 [Example 26]
Growth on wood, leached for 5 days (Aureobasidium pullans; 0.01% in H2O): 4 (No growth on the wood, inhibitory zone up to 2 mm) | Growth on wood, not leached (Aureobasidium pullans; 0.01% in H2O): 5 (No growth on the wood, inhibitory zone greater than 2 mm) | Growth on wood, leached for 5 days (Aureobasidium pullans; 0.05% in H2O): 5 (No growth on the wood, inhibitory zone greater than 2 mm) | Growth on wood, not leached (Aureobasidium pullans; 0.05% in H2O): 5 (No growth on the wood, inhibitory zone greater than 2 mm)

CCCCCCCCCCCCCC[P+](CCCC)(CCCC)CCCC.[CH3][Sn-]([Cl])([Cl])([Cl])[Cl] [Example 22]
MIC (Enterobacter aerogenes): 100 µg/mL | Action against Artemia salina (Artemia salina; 0.25 mg/liter, 6 hours): 0 | Action against Artemia salina (Artemia salina; 0.25 mg/liter, 24 hours): 1-2 | Action against Artemia salina (Artemia salina; 0.25 mg/liter, 48 hours): 2-3 | Action against Artemia salina (Artemia salina; 0.5 mg/liter, 6 hours): 1-2 | Action against Artemia salina (Artemia salina; 0.5 mg/liter, 24 hours): 3 | Action against Artemia salina (Artemia salina; 0.5 mg/liter, 48 hours): 3 | Action against Artemia salina (Artemia salina; 1 mg/liter, 6 hours): 1-2 | Action against Artemia salina (Artemia salina; 1 mg/liter, 24 hours): 3 | Action against Artemia salina (Artemia salina; 1 mg/liter, 48 hours): 3 | Action against Artemia salina (Artemia salina; 2.5 mg/liter, 6 hours): 1-2 | Action against Artemia salina (Artemia salina; 2.5 mg/liter, 24 hours): 3 | Action against Artemia salina (Artemia salina; 2.5 mg/liter, 48 hours): 3 | MIC against fungi (Endomyces geotrichum): 10 µg/mL | MIC against fungi [1]: 10 µg/mL | MIC against fungi (Aspergillus niger): 50 µg/mL | MIC (Bacillus subtilis): 100 µg/mL | MIC against fungi (Penicillium funiculosum): 10 µg/mL | MIC (Serratia marcenscens): 100 µg/mL | MIC against fungi (Alternaria alternata): 50 µg/mL | MIC against fungi (Chaetomium globosum): 10 µg/mL | MIC against fungi (Candida albicans): 10 µg/mL | MIC (Pseudomonas aeruginosa): 100 µg/mL | MIC against fungi (Aspergillus phoenicia): 50 µg/mL | Growth on the agar (Chlorella vulgaris): 2 | Growth in the medium (Chlorella vulgaris): 1 | MIC against fungi (Aureobasidium pullulans): 10 µg/mL | MIC (Proteus vulgaris): 100 µg/mL | MIC [2]: 100 µg/mL

Reference: US4554367A, “Phosphonium organohalogenostannates-IV” (priority 1982, dated 1985)
